Patent US11746370B2, “Methods and compositions for assessing and treating intraocular diseases and disorders” (SMILEBIOTEK ZHUHAI LIMITED, priority 2017, dated 2023)
Entries after “also recorded” stand apart in the source; their conditions may differ.

What was measured:
Bacillus megaterium [1] = experiment: Antibiotic sensitivity screening test in petri dishes, minimum inhibitory concentration (MIC) method; format: cell-based; details: FIG. 27; for sensitivity of Bacillus megaterium / control of its growth in vitro: agar medium with antibiotic, 1*10^7 bacteria per culture, 37° C., 24 h
Procedure: The bacterial culture medium (HuanKai Microbial, Guangzhou, China) containing peptone 5 g, beef extract 3 g, NaCl 5 g, agar 15 g, and MnSO4 5 mg in 1 L ddH2O (pH=7.2) was prepared in conical flask (Drtech, Guangzhou, China) and was sterilized in the autoclave (HIRAYAMA, HEV-50, Japan) at 121° C. for 30 min. Antibiotics (ampicillin, vancomycin, neomycin, metronidazole, and tetracycline, purchased from Sigma, USA) at various concentrations were added into cooled medium. Bacillus megaterium (total 1*10^7 per culture) was cultured in the incubator (HettCube 200, Germany) at 37° C. for 24 h.
To test whether antibiotics can control the growth of Bacillus megaterium in vitro and in vivo, an antibiotic sensitivity screening test in petri dishes was carried out. The sensitivity of Bacillus megaterium to several major antimicrobial agents including Ampicillin, vancomycin, neomycin, metronidazole, and tetracycline were examined using the minimum inhibitory concentration (MIC) method.

Bacillus megaterium [2] = experiment: Bacillus megaterium subretinal inoculation model, bacteria-induced drusenoid pathology in monkey retinal tissues; format: in vivo; details: intravitreous 0.5 mg, one injection on Day 2 post bacterial inoculation, FIG. 28
Procedure: The macaques were sedated by intramuscular injection of a mixture of tiletamine hydrochloride (2.5 mg/kg) and xolazepam hydrochloride (2.5 mg/kg). After instilling topical anesthesia (0.5% proparacaine hydrochloride), the eyes were immediately visualized in vivo using a light microscope. The pupils were then dilated with 0.5% tropicamide and 0.5% phenylephrine to obtain the fundus photographs. Then a 35 gauge anterior chamber cannula was inserted through a sclerotomy and advanced through the vitreous. Under microscopic monitoring, […] of PBS (with or without bacteria) was injected into the subretinal space between photo receptors and RPE, using a NanoFil Syringe Nanofil-100 for Microinjection (World Precision Instruments, USA). All procedures were done using sterile instruments. The macaque was euthanized 47 days post inoculation and the eyeball was enucleated for histological analyses. The eyeballs were fixed in 4% paraformaldehyde for 48 h and then embedded in paraffin. Sections were cut on a microtome at 6 μm and stained with H&E.
(§1) Next, Bacillus megaterium subretinal inoculation model was used to test whether antibiotics might be able to change the bacteria-induced drusenoid pathology in monkey retinal tissues.

[3] = Intraocular administration in monkey, ocular complications; format: in vivo; details: data not shown
From the text: as §1

| Compound | fold less effective in controlling the growth of Bacillus megaterium (Bacillus megaterium [1]; compared with neomycin) [fold] | sensitivity of Bacillus megaterium / control of its growth in vitro (Bacillus megaterium [1]) | size of drusenoid lesion in retinal tissue (Bacillus megaterium [2]) | ocular complications [3] |
| --- | --- | --- | --- | --- |
| Cc1ncc([N+](=O)[O-])n1CCO [metronidazole] | 10000 | – | – | – |
| CN[C@H](CC(C)C)C(=O)N[C@H]1C(=O)N[C@@H](CC(N)=O)C(=O)N[C@H]2C(=O)N[C@H]3C(=O)N[C@H](C(=O)N[C@H](C(=O)O)c4cc(O)cc(O)c4-c4cc3ccc4O)[C@H](O)c3ccc(c(Cl)c3)Oc3cc2cc(c3O[C@@H]2O[C@H](CO)[C@@H](O)[C@H](O)[C@H]2O[C@H]2C[C@](C)(N)[C@H](O)[C@H](C)O2)Oc2ccc(cc2Cl)[C@H]1O [vancomycin] | – | able to inhibit the growth | reduction in the size of drusenoid lesion | – |
| neomycin | – | most sensitive; also recorded: best in vitro activity | – | significant ocular complications including ophthalmatrophia |
